One assay concerns the target human TASK-1 (Homo sapiens, UniProt O14649). Kind of assay: Inhibition of recombinant TASK-1 in stably transfected CHO cells, KCl-induced depolarization, voltage-sensitive dye (B-2). It counts as cell-based. As to conditions: depolarization induced by 40 mM potassium chloride, some mean values from multiple determinations. Also noted: expressed in transfected cells; host or cells: stably transfected CHO cells. In outline:
(§1)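 Stably transfected CHO cells loaded with a voltage-sensitive membrane potential dye. Depolarization was induced with 40 mM KCl, and compound inhibition of it was read by fluorescence. IC50 is the concentration blocking half of the KCl-induced depolarization; some values are means of multiple independent determinations.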

A further assay deals with human TASK-3 (Homo sapiens, UniProt Q9NPC2). The assay is described as follows: Inhibition of recombinant TASK-3 in stably transfected CHO cells, KCl-induced depolarization, voltage-sensitive dye (B-2). It counts as cell-based. Details: expressed in transfected cells; host or cells: stably transfected CHO cells. As to conditions: depolarization induced by 40 mM potassium chloride, some mean values from multiple determinations. In short, it runs like this:
as §1

As a reminder, the IC50 is the concentration that inhibits the measured activity by half.

Chain of human TASK-3 (Q9NPC2 whole entry): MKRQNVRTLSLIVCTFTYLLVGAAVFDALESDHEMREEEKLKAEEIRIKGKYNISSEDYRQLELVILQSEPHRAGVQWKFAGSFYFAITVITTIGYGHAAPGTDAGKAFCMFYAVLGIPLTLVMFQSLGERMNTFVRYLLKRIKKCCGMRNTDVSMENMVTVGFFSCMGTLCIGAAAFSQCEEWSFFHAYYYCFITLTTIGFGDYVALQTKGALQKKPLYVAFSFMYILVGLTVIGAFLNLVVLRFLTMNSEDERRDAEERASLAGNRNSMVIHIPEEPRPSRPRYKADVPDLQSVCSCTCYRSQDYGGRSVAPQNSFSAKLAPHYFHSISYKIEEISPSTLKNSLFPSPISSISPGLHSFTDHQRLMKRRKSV
Chain of human TASK-1 (O14649 whole entry): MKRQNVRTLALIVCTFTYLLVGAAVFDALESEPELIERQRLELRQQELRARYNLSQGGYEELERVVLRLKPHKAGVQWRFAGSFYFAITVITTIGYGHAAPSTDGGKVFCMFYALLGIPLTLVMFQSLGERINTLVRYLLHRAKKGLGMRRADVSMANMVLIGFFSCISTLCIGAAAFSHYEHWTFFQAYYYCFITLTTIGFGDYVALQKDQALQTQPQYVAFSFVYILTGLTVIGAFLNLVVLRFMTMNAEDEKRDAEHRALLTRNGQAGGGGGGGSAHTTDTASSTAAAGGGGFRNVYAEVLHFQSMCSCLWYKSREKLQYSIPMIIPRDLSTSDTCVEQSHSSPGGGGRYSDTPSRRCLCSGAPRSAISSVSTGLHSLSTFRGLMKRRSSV

Regarding `CC(C)c1ccccc1C(=O)N1C2CCC1CN(Cc1c(-c3ccc(Br)cc3)nc3ccccn13)C2` [Example 141, (3-{[2-(4-Bromophenyl)imidazo[1,2-a]pyridin-3-yl]methyl}-3,8-diazabicyclo[3.2.1]oct-8-yl)(2-isopropylphenyl)methanone], the results for the IC50 on human TASK-1 and on human TASK-3 were 250 nM and 59 nM, respectively.
On the same counts, the results for `COc1ccc(C)c(C(=O)N2C3CC2CN(Cc2c(-c4ccc(Cl)cc4)nc4ccccn24)C3)n1` [Example 142, (3-{[2-(4-Chlorophenyl)imidazo[1,2-a]pyridin-3-yl]methyl}-3,6-diazabicyclo[3.1.1]hept-6-yl)(6-methoxy-3-methylpyridin-2-yl)methanone] are 240 nM and 98 nM.
On the same counts, the results for `COc1ccc(C)c(C(=O)N2CC3CCC(C2)N3Cc2c(-c3ccc(Cl)cc3)nc3ccccn23)n1` [Example 143, (8-{[2-(4-Chlorophenyl)imidazo[1,2-a]pyridin-3-yl]methyl}-3,8-diazabicyclo[3.2.1]oct-3-yl)(6-methoxy-3-methylpyridin-2-yl)methanone] are 130 nM and 14 nM.
The like results for `COc1ccc(C)c(C(=O)N2CC3CCC(C2)N3Cc2c(-c3ccc(C(C)C)cc3)nc3ccccn23)n1` [Example 144, (8-{[2-(4-Isopropylphenyl)imidazo[1,2-a]pyridin-3-yl]methyl}-3,8-diazabicyclo[3.2.1]oct-3-yl)(6-methoxy-3-methylpyridin-2-yl)methanone] were, in that order, 180 nM and 27 nM.
For `COc1ccc(C)c(C(=O)N2C3CCC2CN(Cc2c(-c4ccc(C(C)C)cc4)nc4ccccn24)C3)n1` [Example 145, (3-{[2-(4-Isopropylphenyl)imidazo[1,2-a]pyridin-3-yl]methyl}-3,8-diazabicyclo[3.2.1]oct-8-yl)(6-methoxy-3-methylpyridin-2-yl)methanone], the IC50 at human TASK-1 amounted to 280 nM; at human TASK-3 it was 27 nM.
On to `CC(C)c1csc(C(=O)N2C3CCC2CN(Cc2c(-c4ccc(Cl)cc4)nc4ccccn24)C3)n1` [Example 146, (3-{[2-(4-Chlorophenyl)imidazo[1,2-a]pyridin-3-yl]methyl}-3,8-diazabicyclo[3.2.1]oct-8-yl)(4-isopropyl-1,3-thiazol-2-yl)methanone], for which the IC50 on human TASK-1 stood at 920 nM; at human TASK-3, 340 nM.
Consider `O=C(c1nccs1)N1C2CCC1CN(Cc1c(-c3ccc(Cl)cc3)nc3ccccn13)C2` [Example 147, (3-{[2-(4-Chlorophenyl)imidazo[1,2-a]pyridin-3-yl]methyl}-3,8-diazabicyclo[3.2.1]oct-8-yl)(1,3-thiazol-2-yl)methanone], for which the IC50 at human TASK-1 is 12 nM; at human TASK-3, 15 nM.
Consider `Cc1csc(C(=O)N2C3CCC2CN(Cc2c(-c4ccc(Cl)cc4)nc4ccccn24)C3)n1` [Example 148, (3-{[2-(4-Chlorophenyl)imidazo[1,2-a]pyridin-3-yl]methyl}-3,8-diazabicyclo[3.2.1]oct-8-yl)(4-methyl-1,3-thiazol-2-yl)methanone], for which the IC50 on human TASK-1 is 23 nM; on human TASK-3, 2.7 nM.
The like results for `Cc1cnc(C(=O)N2C3CCC2CN(Cc2c(-c4ccc(Cl)cc4)nc4ccccn24)C3)s1` [Example 149, (3-{[2-(4-Chlorophenyl)imidazo[1,2-a]pyridin-3-yl]methyl}-3,8-diazabicyclo[3.2.1]oct-8-yl)(5-methyl-1,3-thiazol-2-yl)methanone] were, in that order, 3000 nM and 300 nM.
Take `Cc1nc(C(=O)N2C3CCC2CN(Cc2c(-c4ccc(Cl)cc4)nc4ccccn24)C3)sc1C` [Example 150, (3-{[2-(4-Chlorophenyl)imidazo[1,2-a]pyridin-3-yl]methyl}-3,8-diazabicyclo[3.2.1]oct-8-yl)(4,5-dimethyl-1,3-thiazol-2-yl)methanone]: the IC50 stood at 2700 nM at human TASK-1 and 210 nM on human TASK-3.
The like results for `CC(C)NC(=O)N1C2CCC1CN(Cc1c(-c3ccc(Cl)cc3)nc3ccccn13)C2` [Example 154, 3-{[2-(4-Chlorophenyl)imidazo[1,2-a]pyridin-3-yl]methyl}-N-isopropyl-3,8-diazabicyclo[3.2.1]octane-8-carboxamide] were, in that order, 130 nM and 29 nM.
`O=C(Nc1ccccc1F)N1C2CCC1CN(Cc1c(-c3ccc(Cl)cc3)nc3ccccn13)C2` [Example 155, 3-{[2-(4-Chlorophenyl)imidazo[1,2-a]pyridin-3-yl]methyl}-N-(2-fluorophenyl)-3,8-diazabicyclo[3.2.1]octane-8-carboxamide]: the IC50 at human TASK-1 amounted to 610 nM; on human TASK-3 it was 210 nM.
On the same counts, the results for `O=C(Nc1c(Cl)cccc1Cl)N1C2CCC1CN(Cc1c(-c3ccc(Cl)cc3)nc3ccccn13)C2` [Example 156, 3-{[2-(4-Chlorophenyl)imidazo[1,2-a]pyridin-3-yl]methyl}-N-(2,6-dichlorophenyl)-3,8-diazabicyclo[3.2.1]octane-8-carboxamide] are 1200 nM and 15 nM.
On the same counts, the results for `Cc1cccc(C)c1NC(=O)N1C2CCC1CN(Cc1c(-c3ccc(Cl)cc3)nc3ccccn13)C2` [Example 157, 3-{[2-(4-Chlorophenyl)imidazo[1,2-a]pyridin-3-yl]methyl}-N-(2,6-dimethylphenyl)-3,8-diazabicyclo[3.2.1]octane-8-carboxamide] are 24 nM and 7.4 nM.
As to `CCCCCNC(=O)N1C2CCC1CN(Cc1c(-c3ccc(Cl)cc3)nc3ccccn13)C2` [Example 158, 3-{[2-(4-Chlorophenyl)imidazo[1,2-a]pyridin-3-yl]methyl}-N-pentyl-3,8-diazabicyclo[3.2.1]octane-8-carboxamide], the figures for the IC50 at human TASK-1 and at human TASK-3 were 760 nM and 110 nM, respectively.
`Cc1ccccc1NC(=O)N1C2CCC1CN(Cc1c(-c3ccc(Cl)cc3)nc3ccccn13)C2` [Example 159, 3-{[2-(4-Chlorophenyl)imidazo[1,2-a]pyridin-3-yl]methyl}-N-(2-methylphenyl)-3,8-diazabicyclo[3.2.1]octane-8-carboxamide]: the IC50 at human TASK-1 was 2900 nM; on human TASK-3, 220 nM.
As for `O=C(Nc1cc(C(F)(F)F)ccc1Cl)N1C2CCC1CN(Cc1c(-c3ccc(Cl)cc3)nc3ccccn13)C2` [Example 160, 3-{[2-(4-Chlorophenyl)imidazo[1,2-a]pyridin-3-yl]methyl}-N-[2-chloro-5-(trifluoromethyl)phenyl]-3,8-diazabicyclo[3.2.1]octane-8-carboxamide], the figures for the IC50 on human TASK-1 and at human TASK-3 were 7600 nM and 1000 nM, respectively.
On the same counts, the results for `O=C(Nc1ccc(Cl)cc1)N1C2CCC1CN(Cc1c(-c3ccc(Cl)cc3)nc3ccccn13)C2` [Example 161, N-(4-Chlorophenyl)-3-{[2-(4-chlorophenyl)imidazo[1,2-a]pyridin-3-yl]methyl}-3,8-diazabicyclo[3.2.1]octane-8-carboxamide] are 7700 nM and 1000 nM.
On to `CCc1cccc(C)c1NC(=O)N1C2CCC1CN(Cc1c(-c3ccc(Cl)cc3)nc3ccccn13)C2` [Example 162, 3-{[2-(4-Chlorophenyl)imidazo[1,2-a]pyridin-3-yl]methyl}-N-(2-ethyl-6-methylphenyl)-3,8-diazabicyclo[3.2.1]octane-8-carboxamide], for which the 50% inhibitory concentration (IC50) at human TASK-1 turned out to be 53 nM; at human TASK-3, 13 nM.
